Reference: ChEMBL document CHEMBL1138846, “Synthesis of C2-C3'N-linked macrocyclic taxoids. Novel docetaxel analogues with high tubulin activity” (J Med Chem, 2004)
Activity calls are given as the source filed them. The rule behind the calls is not given here.

Tests used:
[1] = Concentration required to inhibit 50% of rate of microtubule disassembly; type: functional
[2] = tested on: MCF7; test: Concentration required for inhibition of 50% human breast MCF 7 cell line proliferation after 72 hr of incubation; type: functional, cell-based; settings: MCF7, 72 h
[3] = tested on: HCT-116; test: Concentration required for inhibition of 50% human colon HCT 116 cell line proliferation after 72 hr of incubation; type: functional, cell-based; settings: HCT-116, 72 h
[4] = tested on: KB; test: Concentration required for inhibition of 50% human […] KB cell line proliferation after 72 hr of incubation; type: functional, cell-based
[5] = Ratio of inhibitory concentration of compound against microtubule disassembly to that of inhibitory concentration of paclitaxel; type: functional
[6] = Ratio of inhibitory concentration of compound against microtubule disassembly to that of inhibitory concentration of paclitaxel; Inactive; type: functional

IC50 [1] [nM]	IC50 [2] [nM]	IC50 [3] [nM]	Structure (SMILES)	IC50 [4] [nM]	Ratio [5]	Ratio [6]
1000	–	–	CC(=O)O[C@H]1C(=O)[C@@]2(C)[C@H]([C@H](OC(=O)c3ccccc3)[C@]3(O)C[C@H](OC(=O)[C@H](O)[C@@H](NC(=O)c4ccccc4)c4ccccc4)C(C)=C1C3(C)C)[C@]1(OC(C)=O)CO[C@@H]1C[C@@H]2O [PACLITAXEL]	–	–	–
–	> 10000	8000	CC(=O)O[C@@]12CO[C@@H]1C[C@H](O)[C@@]1(C)C(=O)[C@H](O)C3=C(C)[C@@H]4C[C@@](O)([C@@H](OC(=O)c5cccc(c5)C/C=C\CCCCC(=O)N[C@@H](c5ccccc5)[C@@H](O)C(=O)O4)C12)C3(C)C (stereo partly drawn)	200	1.4	–
–	350	700	CC(=O)O[C@@]12CO[C@@H]1C[C@H](O)[C@@]1(C)C(=O)[C@H](O)C3=C(C)[C@@H]4C[C@@](O)([C@@H](OC(=O)c5cccc(c5)C/C=C/CCCCC(=O)N[C@@H](c5ccccc5)[C@@H](O)C(=O)O4)C12)C3(C)C (stereo partly drawn)	70	1	–
–	–	–	CC(=O)O[C@@]12CO[C@@H]1C[C@H](O)[C@@]1(C)C(=O)[C@H](O)C3=C(C)[C@@H]4C[C@@](O)([C@@H](OC(=O)c5ccc(cc5)C/C=C\CCCCC(=O)N[C@@H](c5ccccc5)[C@@H](O)C(=O)O4)C12)C3(C)C (stereo partly drawn)	280	–	inactive
–	2100	2400	CC(=O)O[C@@]12CO[C@@H]1C[C@H](O)[C@@]1(C)C(=O)[C@H](O)C3=C(C)[C@@H]4C[C@@](O)([C@@H](OC(=O)c5ccccc5C/C=C/CCCCC(=O)N[C@@H](c5ccccc5)[C@@H](O)C(=O)O4)C12)C3(C)C (stereo partly drawn)	700	6	–
–	9	10	C=CCCCCC(=O)N[C@@H](c1ccccc1)[C@@H](O)C(=O)O[C@H]1C[C@@]2(O)[C@@H](OC(=O)c3ccccc3CC=C)C3[C@](C)(C(=O)[C@H](O)C(=C1C)C2(C)C)[C@@H](O)C[C@H]1OC[C@@]31OC(C)=O (stereo partly drawn)	3.2	1.2	–
–	> 10000	> 10000	CC(=O)O[C@@]12CO[C@@H]1C[C@H](O)[C@@]1(C)C(=O)[C@H](O)C3=C(C)[C@@H]4C[C@@](O)([C@@H](OC(=O)CCCC/C=C\CCCCC(=O)N[C@@H](c5ccccc5)[C@@H](O)C(=O)O4)C12)C3(C)C (stereo partly drawn)	8000	7.3	–
–	1	2.2	CC(=O)O[C@@]12CO[C@@H]1C[C@H](O)[C@@]1(C)C(=O)[C@H](O)C3=C(C)[C@@H](OC(=O)[C@H](O)[C@@H](NC(=O)OC(C)(C)C)c4ccccc4)C[C@@](O)([C@@H](OC(=O)c4ccccc4)[C@H]21)C3(C)C [DOCETAXEL]	0.3	0.5	–
–	–	–	CC(=O)O[C@@]12CO[C@@H]1C[C@H](O)[C@@]1(C)C(=O)[C@H](O)C3=C(C)[C@@H]4C[C@@](O)([C@@H](OC(=O)c5ccc(cc5)C/C=C/CCCC(=O)N[C@@H](c5ccccc5)[C@@H](O)C(=O)O4)C12)C3(C)C (stereo partly drawn)	1600	–	inactive
–	–	–	C=CCCCCC(=O)N[C@@H](c1ccccc1)[C@@H](O)C(=O)O[C@H]1C[C@@]2(O)[C@@H](OC(=O)c3ccc(CC=C)cc3)C3[C@](C)(C(=O)[C@H](O)C(=C1C)C2(C)C)[C@@H](O)C[C@H]1OC[C@@]31OC(C)=O (stereo partly drawn)	40	–	inactive
–	–	–	C=CCCCCC(=O)N[C@@H](c1ccccc1)[C@@H](O)C(=O)O[C@H]1C[C@@]2(O)[C@@H](OC(=O)c3cccc(CC=C)c3)C3[C@](C)(C(=O)[C@H](O)C(=C1C)C2(C)C)[C@@H](O)C[C@H]1OC[C@@]31OC(C)=O (stereo partly drawn)	10	1	–
